In ChEMBL document CHEMBL4376806, “Antibiotic Adjuvants: Make Antibiotics Great Again!” (2019):

Assays:
[1] = target: Beta-lactamase CTX-M-27 (Escherichia coli) (UniProt Q840M4); assay: Inhibition of beta-lactamase CTX-M-27 in Escherichia coli (EC113) ST 131 assessed as potentiation of cefazolin-induced antibacterial activity by measuring cefazolin MIC at 10 ug/ml incubated for 18 hrs by CLSI based broth microtitre dilution method (Rvb >16 ug/ml)
[2] = target: Beta-lactamase CTX-M-27 (Escherichia coli) (UniProt Q840M4); assay: Inhibition of beta-lactamase CTX-M-27 in Escherichia coli (EC113) ST 131 assessed as potentiation of aztreonam-induced antibacterial activity by measuring aztreonam MIC at 10 ug/ml incubated for 18 hrs by CLSI based broth microtitre dilution method (Rvb >16 ug/ml)
[3] = target: Beta-lactamase CTX-M-27 (Escherichia coli) (UniProt Q840M4); assay: Inhibition of beta-lactamase CTX-M-27 in Escherichia coli (EC113) ST 131 assessed as potentiation of piperacillin-induced antibacterial activity by measuring piperacillin MIC at 10 ug/ml incubated for 18 hrs by CLSI based broth microtitre dilution method (Rvb >64 ug/ml)
[4] = target: Beta-lactamase CTX-M-27 (Escherichia coli) (UniProt Q840M4); assay: Inhibition of beta-lactamase CTX-M-27 in Escherichia coli (EC113) ST 131 assessed as potentiation of ceftazidime-induced antibacterial activity by measuring ceftazidime MIC at 10 ug/ml incubated for 18 hrs by CLSI based broth microtitre dilution method (reference value: 8 ug/ml)
[5] = target: Beta-lactamase CTX-M-27 (Escherichia coli) (UniProt Q840M4); assay: Inhibition of beta-lactamase CTX-M-27 in Escherichia coli (EC113) ST 131 assessed as potentiation of ceftriaxone-induced antibacterial activity by measuring ceftriaxone MIC at 10 ug/ml incubated for 18 hrs by CLSI based broth microtitre dilution method (Rvb >32 ug/ml)
[6] = target: Beta-lactamase CTX-M-27 (Escherichia coli) (UniProt Q840M4); assay: Inhibition of beta-lactamase CTX-M-27 in Escherichia coli (EC113) ST 131 assessed as potentiation of cefepime-induced antibacterial activity by measuring cefepime MIC at 10 ug/ml incubated for 18 hrs by CLSI based broth microtitre dilution method (Rvb >32 ug/ml)
[7] = target: Beta-lactamase CTX-M-27 (Escherichia coli) (UniProt Q840M4); assay: Inhibition of beta-lactamase CTX-M-27 in Escherichia coli (EC113) ST 131 assessed as potentiation of ampicillin-induced antibacterial activity by measuring ampicillin MIC at 10 ug/ml incubated for 18 hrs by CLSI based broth microtitre dilution method (Rvb >16 ug/ml)
Escherichia coli [8] = assay: Potentiation of erythromycin-induced antibacterial activity against Escherichia coli W3110 assessed as erythromycin MIC at 64 ug/ml after 20 hrs by liquid microdilution method (reference value: 64 ug/ml); type: functional; details: K-12 substr. W3110, 20 h
Escherichia coli [9] = assay: Potentiation of novobiocin-induced antibacterial activity against Escherichia coli W3110 assessed as novobiocin MIC at 64 ug/ml after 20 hrs by liquid microdilution method (reference value: 128 ug/ml); type: functional; details: K-12 substr. W3110, 20 h
[10] = target: T1, MexAB/OprM (Pseudomonas aeruginosa (strain ATCC 15692 / DSM 22644 / CIP 104116 / JCM14847 / LMG 12228 / 1C / PRS 101 / PAO1)) (UniProt P52477+P52002+Q51487); assay: Inhibition of MexAB/OprM in Pseudomonas aeruginosa PAO1 assessed as potentiation of carbenicillin-induced antibacterial activity by measuring carbenicillin MIC at 128 ug/ml incubated for 18 hrs (reference value: 64 ug/ml)
[11] = target: T1, MexAB/OprM (Pseudomonas aeruginosa (strain ATCC 15692 / DSM 22644 / CIP 104116 / JCM14847 / LMG 12228 / 1C / PRS 101 / PAO1)); assay: Inhibition of MexAB/OprM in Pseudomonas aeruginosa PAO1 assessed as potentiation of tetracycline-induced antibacterial activity by measuring tetracycline MIC at 128 ug/ml incubated for 18 hrs (reference value: 8 ug/ml)
[12] = target: T1, MexAB/OprM (Pseudomonas aeruginosa (strain ATCC 15692 / DSM 22644 / CIP 104116 / JCM14847 / LMG 12228 / 1C / PRS 101 / PAO1)); assay: Inhibition of MexAB/OprM in Pseudomonas aeruginosa PAO1 assessed as potentiation of ciprofloxacin-induced antibacterial activity by measuring ciprofloxacin MIC at 128 ug/ml incubated for 18 hrs (reference value: 1 ug/ml)
[13] = target: T1, MexAB/OprM (Pseudomonas aeruginosa (strain ATCC 15692 / DSM 22644 / CIP 104116 / JCM14847 / LMG 12228 / 1C / PRS 101 / PAO1)); assay: Inhibition of MexAB/OprM in Pseudomonas aeruginosa PAO1 assessed as potentiation of novobiocin-induced antibacterial activity by measuring novobiocin MIC at 128 ug/ml incubated for 18 hrs (reference value: 512 ug/ml)
[14] = target: T1, MexAB/OprM (Pseudomonas aeruginosa (strain ATCC 15692 / DSM 22644 / CIP 104116 / JCM14847 / LMG 12228 / 1C / PRS 101 / PAO1)); assay: Inhibition of MexAB/OprM in Pseudomonas aeruginosa PAO1 assessed as potentiation of trimethoprim-induced antibacterial activity by measuring trimethoprim MIC at 128 ug/ml incubated for 18 hrs (reference value: 128 ug/ml)
[15] = target: T1, MexAB/OprM (Pseudomonas aeruginosa (strain ATCC 15692 / DSM 22644 / CIP 104116 / JCM14847 / LMG 12228 / 1C / PRS 101 / PAO1)); assay: Inhibition of MexAB/OprM in Pseudomonas aeruginosa PAO1 assessed as potentiation of chloramphenicol-induced antibacterial activity by measuring chloramphenicol MIC at 128 ug/ml incubated for 18 hrs (reference value: 64 ug/ml)
[16] = system: MexAB/OprM (Pseudomonas aeruginosa (strain ATCC 15692 / DSM 22644 / CIP 104116 / JCM14847 / LMG 12228 / 1C / PRS 101 / PAO1)), P52477+P52002+Q51487 [UNDEFINED MUTATION]; assay: Inhibition of MexAB/OprM nalB mutant in Pseudomonas aeruginosa PAO1 K1455 assessed as potentiation of cefotaxime-induced antibacterial activity by measuring cefotaxime MIC at 20 ug/ml incubated for 18 hrs by CLSI based broth microtitre dilution method (reference value: 64 ug/ml)
[17] = system: MexAB/OprM (Pseudomonas aeruginosa (strain ATCC 15692 / DSM 22644 / CIP 104116 / JCM14847 / LMG 12228 / 1C / PRS 101 / PAO1)), P52477+P52002+Q51487 [UNDEFINED MUTATION]; assay: Inhibition of MexAB/OprM nalB mutant in Pseudomonas aeruginosa PAO1 K1455 assessed as potentiation of novobiocin-induced antibacterial activity by measuring novobiocin MIC at 20 ug/ml incubated for 18 hrs by CLSI based broth microtitre dilution method (Rvb > 2048 ug/ml)
[18] = system: MexAB/OprM (Pseudomonas aeruginosa (strain ATCC 15692 / DSM 22644 / CIP 104116 / JCM14847 / LMG 12228 / 1C / PRS 101 / PAO1)), P52477+P52002+Q51487 [UNDEFINED MUTATION]; assay: Inhibition of MexAB/OprM nalB mutant in Pseudomonas aeruginosa PAO1 K1455 assessed as potentiation of rifampin-induced antibacterial activity by […] at 20 ug/ml incubated for 18 hrs by CLSI based broth microtitre dilution method (reference value: 16 ug/ml)
[19] = system: MexAB/OprM (Pseudomonas aeruginosa (strain ATCC 15692 / DSM 22644 / CIP 104116 / JCM14847 / LMG 12228 / 1C / PRS 101 / PAO1)), P52477+P52002+Q51487 [UNDEFINED MUTATION]; assay: Inhibition of MexAB/OprM nalB mutant in Pseudomonas aeruginosa PAO1 K1455 assessed as potentiation of levofloxacin-induced antibacterial activity by measuring levofloxacin MIC at 20 ug/ml incubated for 18 hrs by CLSI based broth microtitre dilution method (reference value: 2 ug/ml)
[20] = system: MexAB/OprM (Pseudomonas aeruginosa (strain ATCC 15692 / DSM 22644 / CIP 104116 / JCM14847 / LMG 12228 / 1C / PRS 101 / PAO1)), P52477+P52002+Q51487 [UNDEFINED MUTATION]; assay: Inhibition of MexAB/OprM nalB mutant in Pseudomonas aeruginosa PAO1 K1455 assessed as potentiation of tetracycline-induced antibacterial activity by measuring tetracycline MIC at 20 ug/ml incubated for 18 hrs by CLSI based broth microtitre dilution method (reference value: 64 ug/ml)
[21] = system: MexAB/OprM (Pseudomonas aeruginosa (strain ATCC 15692 / DSM 22644 / CIP 104116 / JCM14847 / LMG 12228 / 1C / PRS 101 / PAO1)), P52477+P52002+Q51487 [UNDEFINED MUTATION]; assay: Inhibition of MexAB/OprM nalB mutant in Pseudomonas aeruginosa PAO1 K1455 assessed as potentiation of erythromycin-induced antibacterial activity by measuring erythromycin MIC at 20 ug/ml incubated for 18 hrs by CLSI based broth microtitre dilution method (reference value: 256 ug/ml)
Klebsiella pneumoniae [22] = assay: Inhibition of beta-lactamase TEM-4 in Klebsiella pneumoniae 25637 assessed as potentiation of ceftazidime-induced antibacterial activity by measuring ceftazidime MIC (reference value: 32 ug/ml)
Escherichia coli [23] = assay: Inhibition of beta-lactamase TEM-8 in Escherichia coli CF3 assessed as potentiation of ceftazidime-induced antibacterial activity by measuring ceftazidime MIC (reference value: 64 ug/ml)
Klebsiella pneumoniae [24] = assay: Inhibition of beta-lactamase TEM-2 in Klebsiella pneumoniae IP1 assessed as potentiation of ceftazidime-induced antibacterial activity by measuring ceftazidime MIC (reference value: 16 ug/ml)
Escherichia coli [25] = assay: Inhibition of Beta-lactamase PER-1 in Escherichia coli KB10 assessed as potentiation of ceftazidime-induced antibacterial activity by measuring ceftazidime MIC (Rvb >64 ug/ml)
Klebsiella pneumoniae [26] = assay: Inhibition of Beta-lactamase SHV-2 in Klebsiella pneumoniae IP86 assessed as potentiation of ceftazidime-induced antibacterial activity by measuring ceftazidime MIC (reference value: 64 ug/ml)
[27] = target: Beta-lactamase TEM (Escherichia coli) (UniProt P62593); assay: Inhibition of beta-lactamase TEM-1 in Escherichia coli GN5482 assessed as potentiation of ceftazidime-induced antibacterial activity by measuring ceftazidime MIC (reference value: 4 ug/ml)

Q: NCc1ccc(C(=O)N[C@H]2Cc3cccc(C(=O)O)c3O[B-]2(O)O)cc1 was tested. Which MIC [1] did it give?
A: 4 µg/mL

Q: And the MIC [2]?
A: < 1 µg/mL

Q: What about the MIC [3] of the same molecule?
A: < 16 µg/mL

Q: What about the MIC [4] of the same molecule?
A: < 1 µg/mL

Q: And the MIC [5]?
A: < 0.5 µg/mL

Q: What about the MIC [6] of the same molecule?
A: < 4 µg/mL

Q: What about the MIC [7] of the same molecule?
A: < 8 µg/mL

Q: With Cl.Cl.Cl.Cl.NCCCNCCCCNCCCNC(=O)Cc1cccc2ccccc12 as the molecule, how does the MIC (Escherichia coli [8]) read?
A: 4 µg/mL

Q: What about the MIC (Escherichia coli [9]) of the same molecule?
A: 1 µg/mL

Q: What does the source list for O=C(O[C@@H]1Cc2c(O)cc(O)cc2O[C@@H]1c1cc(O)c(O)c(O)c1)c1cc(O)c(O)c(O)c1?
A: MIC [10]: 64 µg/mL; MIC [11]: 2 µg/mL; MIC [12]: 0.5 µg/mL; MIC [13]: 128 µg/mL; MIC [14]: 32 µg/mL; MIC [15]: 16 µg/mL

Q: C[C@H]1[C@H]2CC[C@H]3[C@@H]4CC=C5C[C@@H](N(C)C)CC[C@]5(C)[C@H]4CC[C@]23CN1C was tested. Which MIC [16] did it give?
A: 8 µg/mL

Q: What about the MIC [17] of the same molecule?
A: 256 µg/mL

Q: And the MIC [18]?
A: 2 µg/mL

Q: And the MIC [19]?
A: 0.25 µg/mL

Q: And the MIC [20]?
A: 8 µg/mL

Q: And the MIC [21]?
A: 32 µg/mL

Q: With NC(=O)[C@@H]1CC[C@@H]2CN1C(=O)N2OS(=O)(=O)O as the molecule, how does the MIC (Klebsiella pneumoniae [22]) read?
A: 0.5 µg/mL

Q: What about the MIC (Escherichia coli [23]) of the same molecule?
A: 2 µg/mL

Q: And the MIC (Klebsiella pneumoniae [24])?
A: 0.5 µg/mL

Q: What about the MIC (Escherichia coli [25]) of the same molecule?
A: 4 µg/mL

Q: And the MIC (Klebsiella pneumoniae [26])?
A: 1 µg/mL

Q: And the MIC [27]?
A: 0.5 µg/mL
